From patent US5380732A, “Pesticidal compounds” (priority 1986, dated 1995)

Tests used:
Type in all cases: in vivo
Plutella xylostella [1] = assay: discs of chinese cabbage infested with second instar Plutella larvae sprayed (Example C); details: 2 days, 25° C.
Experimental: (§1) The compounds of the invention were tested by dissolving them in acetone (5%) and then diluting in water/`Synperonic` (94.5%/0.5%) to give a water emulsion. ("Synperonic" is a R.T.M. of I.C.I. plc and is nonylphenol ethoxylate in aqueous solution to give 27%; available from B.D.H., Poole, Dorset, England). The solution was then used to treat the following insects.
or Discs of chinese cabbage infested with c8 second instar Plutella larvae were sprayed with the solution containing the compound. Mortality was assessed after 2 days at 25° C.

Tetranychus urticae = assay: leaf discs of infested french bean sprayed (Example C); details: 2 days, 25° C.
Experimental: as §1
Leaf discs of infested french bean were sprayed with the solution containing the compound. Mortality was assessed after 2 days at 25° C.

Sitophilus granarius = assay: adults on treated wheat, mortality after 6 days, Sitophilus (Example C); details: 25° C.
Experimental: as §1
20 adult Sitophilus and Tribolium were added to 10 g wheat which had been previously treated with 2 ml of the solution containing the compound. Mortality was assessed after 6 days at 25° C.

Musca domestica = assay: spray onto 20 female Musca, mortality after 2 days (Example C); details: 25° C.
Experimental: as §1
20 female Musca were contained in a cardboard cylinder with gauze over either end. Solution containing the compound was sprayed onto the insects so enclosed and mortality assessed after 2 days at 25° C.

Plutella xylostella [2] = assay: fourth instar Plutella larvae sprayed and added to sprayed chinese cabbage leaf (Example C); details: 2 days, 25° C.
Experimental: as §1
7 Fourth instar Plutella larvae were sprayea with the solution containing the compound and added to a chinese cabbage leaf which had been similarly sprayed and left to dry. Mortality was assessed after 2 days at 25° C.

Spodoptera littoralis [3] = assay: injection into fifth instar Spodoptera littoralis larvae (Example D); details: 5% solution in DMSO/acetone (50:50), 1.0 ul injected, 2 days, 25° C.
Experimental: The compounds of the invention were also tested by dissolving them in DMSO/acetone (50:50) to give a 5% solution, 1.0 ul of which was injected into fifth instar Spodoptera littoralis larvae. Mortality was assessed after 2 days at 25° C.

Myzus persicae = assay: adult Myzus on chinese cabbage leaf disc sprayed (Example C); details: at 1000 ppm; 2 days, 25° C.
Experimental: as §1
10 adult Myzus were placed on a leaf disc of chinese cabbage. 24 hours later the disc was sprayed with the solution containing the compound. Mortality was assessed after 2 days at 25° C.

Blatella germanica = assay: activity against Blatella germanica with piperonyl butoxide; details: at up to 10 μg per insect (+piperonyl butoxide)
Spodoptera littoralis [4] = assay: sprayed leaves infested with newly hatched Spodoptera larvae (Example C); details: at 200 ppm, +pip but, 3 days
Experimental: as §1
Uninfested leaves were sprayed with the test solution containing the compound (+pip but) and left to dry. These were then infested with 10 newly hatched larvae. Mortality was assessed after 3 days.

[5] = tested on: Diabrotica undecimpunctata; assay: 2nd instar larvae and their food sprayed on filter paper (Example C); details: at 1000 ppm; 2nd instar larvae, 2 days
Experimental: as §1
2nd instar larvae and their food were sprayed on filter paper with the solution containing the compound. Activity was assessed at 2 days.

## CC(C)CNC(=O)C=CC=CCCCCCCCOc1nc(C(F)(F)F)ccc1C(F)(F)F [Example 20]
Plutella xylostella [1]; at 200 ppm
  active (mortality): active

## C=C(C)CNC(=O)C=CC=CCCCCCCCOc1cc(C(F)(F)F)cc(C(F)(F)F)n1 [Example 21]
Tetranychus urticae; at 1000 ppm
  active (mortality): active
Sitophilus granarius
  active (mortality): active
Musca domestica; at 200 ppm
  active (mortality): active

## CC1(CNC(=O)/C=C/C=C/CCCCCCCOc2cc(C(F)(F)F)cc(C(F)(F)F)n2)OCCO1 [Example 22, (2E,4E) N-(2-methyl-1,3-dioxalan-2-yl)-methyl 12-(4',6'-bistrifluoromethyl-2-pyridyloxy)-dodeca-2,4-dienamide]
Sitophilus granarius
  active (mortality): active
Musca domestica; at 200 ppm
  active (mortality): active

## CC(C=CCCCCCCCOc1cc(C(F)(F)F)cc(C(F)(F)F)n1)=CC(=O)NCC(C)C [Example 23]
Tetranychus urticae; at 1000 ppm
  active (mortality): active
Musca domestica; at 1000 ppm
  active (mortality): active

## CC(C)C(C)NC(=O)C=CC=CCCCCCCCOc1cncc(Cl)c1 (stereo not drawn) [Example 24]
Plutella xylostella [2]; at 1000 ppm
  active (mortality): active

## CC(C)CNC(=O)C=CC=CCCCCCCCOc1cncc(Cl)c1 [Example 25]
Tetranychus urticae; at 200 ppm
  active (mortality): active

## CC(C=CCCCCCCCOc1cccnc1Cl)=CC(=O)NC(C)C(C)C (stereo not drawn) [Example 27]
Tetranychus urticae; at 1000 ppm
  active (mortality): active

## CC(C)CNC(=O)C=CC=CCCCCCCCOc1cccnc1Br [Example 28]
Tetranychus urticae; at 1000 ppm
  active (mortality): active

## CC(C=CCCCCCCCOc1cccnc1Br)=CC(=O)NCC(C)C [Example 29]
Tetranychus urticae; at 1000 ppm
  active (mortality): active
Spodoptera littoralis [3]
  active (mortality): active

## CCC(C)NC(=O)/C=C/C=C/CCCCCCCOc1ccncc1 (stereo not drawn) [Example 30, (2E,4E) -N-(1-methylpropyl) 12-(4'-pyridyloxy)dodeca-2,4-dienamide]
Myzus persicae
  active (mortality): active

## CC(C)CNC(=O)/C=C/C=C/CCCCCCCOc1ccncc1 [Example 31, (2E,4E) N-Isobutyl 12-(4'-pyridyloxy)-dodeca-2,4-dienamide]
Sitophilus granarius
  active (mortality): active
Myzus persicae
  active (mortality): active

## CC(C)CNC(=O)/C=C/C=C/CCCCCCCOc1cc(C(F)(F)F)nc(C(F)(F)F)c1 [Example 35, (2E,4E) N-Isobutyl 12-(2',6'-bistrifluoromethyl-4'-pyridyloxy)-dodeca-2,4-dienamide]
Sitophilus granarius
  active (mortality): active
Spodoptera littoralis [3]
  active (mortality): active
Musca domestica; at 1000 ppm
  active (mortality): active
Plutella xylostella [1]; at 200 ppm
  active (mortality): active

## CC(/C=C/CCCCCCOCc1cccc(Cl)n1)=C\C(=O)NCC(C)C [Example 36, (2E,4E) N-Isobutyl 11-(6'-chloro-2'-pyridylmethoxy) -3-methylundeca-2,4-dienamide]
Tetranychus urticae; at 1000 ppm
  active (mortality): active
Plutella xylostella [1]; at 1000 ppm
  active (mortality): active

## CC(/C=C/CCCCCCCOc1ncc(C(F)(F)F)cc1C(F)(F)F)=C(/F)C(=O)NCC(C)C [Example 38, (2Z,4E)N-Isobutyl 2-fluoro-3-methyl-12-(3,5-bistrifluoromethyl-2-pyridyloxy)dodeca-2,4-dienamide]
Tetranychus urticae; at 200 ppm
  active (mortality): active
Blatella germanica
  active: active
Spodoptera littoralis [4]
  active (mortality): active
[5]
  active: active
Plutella xylostella [2]; at 40 ppm
  active (mortality): active
Musca domestica; at 1000 ppm
  active (mortality): active

## CC(/C=C/CCCCCCCOc1ncc(C(F)(F)F)cc1Cl)=C(/F)C(=O)NCC(C)C [Example 39, (2Z,4E)N-Isobutyl 2-fluoro-3-methyl-12-(3-chloro-5-trifluoromethyl-2-pyridyloxy) dodeca-2,4-dienamide]
Blatella germanica
  active: active

## (2E,4E) N-1-Methylpropyl 12-(4'-chloro-2-pyrimidyloxy) dodeca-2,4-dienamide and (2E,4E) N-1-Methylpropyl 12-(2-chloro-4'-pyrimidyloxy) -dodeca-2,4-dienamide [Example 34]
Tetranychus urticae; at 1000 ppm
  active (mortality): active

## (2E,4E) N-Isobutyl 12-(4'-chloro-2'-pyrimidyloxy)-dodeca-2,4-dienamide and (2E,4E) N-Isobutyl 12-(2'-chloro-4-pyrimidyloxy)-dodeca-2,4-dienamide [Example 32]
Tetranychus urticae; at 1000 ppm
  active (mortality): active

## (2E/Z,4E) N-Isobutyl 3-methyl-12-(4-chloro-2'-pyrimidyloxy) -dodeca-2,4-dienamide and (2E/Z,4E) N-Isobutyl 3-methyl-12-(2-chloro-4'-pyrimidyloxy) -dodeca-2,4-dienamide [Example 33]
Myzus persicae
  active (mortality): active
